How the values were obtained:
[1] = target: T1, potassium ion channel hERG (human Ether-á-go-go-Related Gene) (Homo sapiens, UniProt Q12809); experiment: Assay 5 - hERG assay (SyncroPatch 384PE patch clamp, CHO cells); type: cell-based; settings: geometric mean; CHO cells over-expressing hERG; read-out: Assay 5 (hERG Hu CHO IF EPh CR-Syncro) GMean IC50
T1 construct: expressed in transfected cells; host or cells: Chinese hamster ovary K1 (CHO)
Procedure: Assay 5—hERG Assay (Human Ether-á-go-go-Related Gene)
This assay (human Ether-á-go-go-Related Gene) measures activity of the compounds at the potassium ion channel hERG (human Ether-á-go-go-Related Gene).
Experiments were performed on the SyncroPatch 384PE high throughput patch clamp platform at room temperature and medium resistance chips with 4 patch holes per site. Chinese hamster ovary K1 (CHO) cell lines over-expressing the ion channel of choice (hERG) were used in assay-ready format and kept in liquid nitrogen or were used from live culture. Cells were either thawed and diluted in HBSS or were detached from flasks and resuspended in HBSS. HBSS comprised 140 mM NaCl, 4 mM KCl, 10 mM HEPES and 5 mM Glucose (pH7.4). The internal patch clamp solution was KF 120 mM, KCl 20 mM, HEPES 10 mM, EGTA 10 mM, and 25 PM Escin (pH 7.2). After the sealing process was complete, the external solution was exchanged for external patch clamp solution comprising NaCl 80 mM, KCl 4 mM, HEPES 10 mM, CaCl2 2 mM, MgCl2 1 mM, glucose 5 mM, and NMDG 60 mM (pH 7.4). All solutions were stored at room temperature, except Escin, which was stored at 4° C. All test compounds were dispensed in greiner-bio 384 well plates and tested in a 6 point cumulative assay (final DMSO concentration 0.33%). Only wells that passed previously agreed acceptance criteria for this platform were used in this analysis (30 MegaOhm seal resistance, Z prime >0.4 and current size >0.2 nA).

[2] = target: PCSK9 (Homo sapiens, UniProt Q8NBP7, G670E/V474I); experiment: biochemical
[3] = target: GSK3β (Glycogen synthase kinase-3 beta) (Homo sapiens, UniProt P49841); experiment: Assay 6 - GSK3β assay (ThermoFisher Z-Lyte); type: biochemical; settings: geometric mean; ATP Conc: 10 μM; read-out: Assay 6 (GSK3β FRET-Z-Lyte CR) GMean IC50 (μM) ATP Conc: 10
Procedure: Assay 6—GSK3β Assay (ThermoFisher Assay)
This assay measures the activity of the compounds at GSK3β (Glycogen synthase kinase-3 beta).
The test compounds were screened in 1% DMSO (final) in the well. For 10 point titrations, 3-fold serial dilutions are conducted from the starting concentration of 10 μM.
Bar-coded Corning, low volume NBS, black 384-well plate • 1. 2.5 μL—4× Test Compound or 100 nL 100× plus 2.4 μL kinase buffer • 2. 5 μL—2× Peptide/Kinase Mixture • 3. 2.5 μL—4×ATP Solution • 4. 30-second plate shake • 5. 60-minute Kinase Reaction incubation at room temperature • 6. 5 μL—Development Reagent Solution • 7. 30-second plate shake • 8. 60-minute Development Reaction incubation at room temperature • 9. Read on fluorescence plate reader and analyse the data
In step 2, the 2×GSK3β (GSK3 beta)/Ser/Thr (Glycogen synthase kinase-3 beta/Serine/Threonine) 09 mixture is prepared in 50 mM HEPES (4-(2-hydroxyethyl)-1-piperazineethanesulfonic acid) pH 7.5, 0.01% BRIJ-35, 10 mM MgCl2, 1 mM EGTA (egtazic acid). The final 10 μL Kinase Reaction consists of 0.22-0.92 ng GSK3β (GSK3 beta) and 2 μM Ser/Thr 09 in 50 mM HEPES pH 7.5, 0.01% BRIJ-35, 10 mM MgCl2, 1 mM EGTA.
In step 3 the ATP Solution is diluted to a 4× working concentration in Kinase Buffer (50 mM HEPES pH 7.5, 0.01% BRIJ-35, 10 mM MgCl2, 1 mM EGTA).
In Step 6 the Development Reagent is diluted 1:512 in Development Buffer (10× Novel PKC Lipid Mix: 2 mg/mL Phosphatidyl Serine, 0.2 mg/mL DAG in 20 mM HEPES, pH 7.4, 0.3% CHAPS).
SelectScreen® Kinase Profiling Service uses XLfit from IDBS. The dose response curve is curve fit to model number 205 (sigmoidal dose-response model).

T1 sequence (Q12809 whole entry): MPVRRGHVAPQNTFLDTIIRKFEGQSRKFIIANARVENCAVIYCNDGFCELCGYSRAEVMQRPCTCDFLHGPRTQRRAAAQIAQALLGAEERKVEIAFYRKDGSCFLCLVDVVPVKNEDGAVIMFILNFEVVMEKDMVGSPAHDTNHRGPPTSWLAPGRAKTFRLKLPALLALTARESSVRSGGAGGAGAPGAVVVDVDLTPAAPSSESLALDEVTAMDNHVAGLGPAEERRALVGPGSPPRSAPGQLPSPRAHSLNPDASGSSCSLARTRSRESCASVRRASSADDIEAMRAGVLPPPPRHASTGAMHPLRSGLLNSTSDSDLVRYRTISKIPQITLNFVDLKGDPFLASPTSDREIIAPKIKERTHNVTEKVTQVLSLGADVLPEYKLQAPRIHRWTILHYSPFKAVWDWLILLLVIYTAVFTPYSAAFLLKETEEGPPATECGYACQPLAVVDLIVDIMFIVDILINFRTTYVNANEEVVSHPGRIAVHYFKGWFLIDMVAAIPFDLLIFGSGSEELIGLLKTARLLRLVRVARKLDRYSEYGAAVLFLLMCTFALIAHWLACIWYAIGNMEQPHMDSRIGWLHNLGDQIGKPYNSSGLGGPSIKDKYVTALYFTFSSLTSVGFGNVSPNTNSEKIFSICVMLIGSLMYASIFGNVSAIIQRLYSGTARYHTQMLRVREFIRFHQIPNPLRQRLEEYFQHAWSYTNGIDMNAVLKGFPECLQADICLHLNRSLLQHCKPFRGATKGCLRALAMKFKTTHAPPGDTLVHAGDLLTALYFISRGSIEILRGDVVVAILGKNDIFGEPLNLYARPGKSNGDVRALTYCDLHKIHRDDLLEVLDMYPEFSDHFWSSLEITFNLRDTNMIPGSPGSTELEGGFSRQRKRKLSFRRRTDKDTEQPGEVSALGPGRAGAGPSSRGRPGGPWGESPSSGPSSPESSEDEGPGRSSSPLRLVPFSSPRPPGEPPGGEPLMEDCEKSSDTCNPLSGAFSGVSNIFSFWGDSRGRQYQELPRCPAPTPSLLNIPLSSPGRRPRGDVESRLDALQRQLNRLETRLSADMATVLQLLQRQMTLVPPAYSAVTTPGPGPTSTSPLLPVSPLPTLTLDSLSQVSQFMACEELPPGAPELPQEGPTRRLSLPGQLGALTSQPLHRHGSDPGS
GSK3β (Glycogen synthase kinase-3 beta), sequence (P49841 whole entry): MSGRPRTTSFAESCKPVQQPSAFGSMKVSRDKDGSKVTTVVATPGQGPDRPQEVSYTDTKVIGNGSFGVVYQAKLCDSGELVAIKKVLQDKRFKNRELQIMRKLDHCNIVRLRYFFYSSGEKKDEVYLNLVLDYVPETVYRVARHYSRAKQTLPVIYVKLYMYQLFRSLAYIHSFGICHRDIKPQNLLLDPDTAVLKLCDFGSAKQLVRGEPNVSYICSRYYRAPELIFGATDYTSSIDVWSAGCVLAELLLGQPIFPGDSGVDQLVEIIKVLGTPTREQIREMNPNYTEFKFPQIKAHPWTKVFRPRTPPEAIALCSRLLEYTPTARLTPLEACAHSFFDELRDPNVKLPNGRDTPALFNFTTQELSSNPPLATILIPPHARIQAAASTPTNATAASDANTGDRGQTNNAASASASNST
PCSK9, sequence (Q8NBP7 with tags, fused parts or gaps V474I/G670E): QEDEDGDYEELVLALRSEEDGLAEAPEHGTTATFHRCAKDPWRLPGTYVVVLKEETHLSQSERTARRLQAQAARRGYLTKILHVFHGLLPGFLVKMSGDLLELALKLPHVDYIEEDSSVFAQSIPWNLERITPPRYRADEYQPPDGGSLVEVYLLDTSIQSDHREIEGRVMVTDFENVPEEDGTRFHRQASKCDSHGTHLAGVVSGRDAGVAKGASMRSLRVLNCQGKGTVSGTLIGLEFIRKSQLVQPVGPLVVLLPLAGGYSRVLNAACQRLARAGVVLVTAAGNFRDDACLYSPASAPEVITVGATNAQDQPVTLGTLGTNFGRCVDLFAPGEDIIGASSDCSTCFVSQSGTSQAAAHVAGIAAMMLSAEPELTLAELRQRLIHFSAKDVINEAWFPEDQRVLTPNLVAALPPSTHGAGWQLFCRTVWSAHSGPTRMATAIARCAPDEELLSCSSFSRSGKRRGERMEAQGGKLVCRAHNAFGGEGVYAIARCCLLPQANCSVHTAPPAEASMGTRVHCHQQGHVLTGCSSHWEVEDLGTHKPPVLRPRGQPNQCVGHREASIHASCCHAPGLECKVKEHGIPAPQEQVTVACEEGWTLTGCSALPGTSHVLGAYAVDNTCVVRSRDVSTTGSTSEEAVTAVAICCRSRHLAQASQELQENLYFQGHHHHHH

SMILES | IC50 [1] | IC50 [2] | IC50 [3]
C[C@@]12C[C@]1(C)C(=O)N(c1ccc(N[C@H]3CC[C@H](Nc4cnc(OC(F)F)cn4)C3)nc1)C2=O [Example 80, (cis)-3-(6-(((1S,3S)-3-((5-(Difluoromethoxy)pyrazin-2-yl)amino)cyclopentyl)amino)pyridin-3-yl)-1,5-dimethyl-3-azabicyclo[3.1.0]hexane-2,4-dione] | > 40 µM | 1.03 µM | > 10 µM
O=c1ccc(Cl)cn1-c1ccc(N[C@H]2CC[C@H](Nc3cnc(OC(F)F)cn3)C2)nc1 [Example 83, 5-Chloro-6′-(((1S,3S)-3-((5-(difluoromethoxy)pyrazin-2-yl)amino)cyclopentyl)amino)-2H-[1,3′-bipyridin]-2-one] | 5 µM | 0.044 µM | > 10 µM
N#Cc1ccc(=O)n(-c2ccc(N[C@H]3CC[C@H](Nc4cnc(OC(F)F)cn4)C3)nc2)c1 [Example 89, 6′-(((1S,3S)-3-((5-(Difluoromethoxy)pyrazin-2-yl)amino)cyclopentyl)amino)-2-oxo-2H-[1,3′-bipyridine]-5-carbonitrile] | 6.8 µM | 0.121 µM | > 10 µM
N#Cc1cccn(-c2ccc(N[C@H]3CC[C@H](Nc4cnc(OC(F)F)cn4)C3)nc2)c1=O [Example 90, 6′-(((1S,3S)-3-((5-(Difluoromethoxy)pyrazin-2-yl)amino)cyclopentyl)amino)-2-oxo-2H-[1,3′-bipyridine]-3-carbonitrile] | 11.7 µM | 0.015 µM | > 10 µM
Cc1nc(N[C@H]2CC[C@H](Nc3ccc(-n4ccccc4=O)cn3)C2)cnc1OC(F)F [Example 91, 6′-(((1S,3S)-3-((5-(Difluoromethoxy)-6-methylpyrazin-2-yl)amino)cyclopentyl)amino)-2H-[1,3′-bipyridin]-2-one] | 9.6 µM | 0.436 µM | > 10 µM
CN1CC(=O)N(c2ccc(N[C@H]3CC[C@H](Nc4cnc(OC(F)F)cn4)C3)nc2)C1=O [Example 93, 3-(6-(((1S,3S)-3-((5-(Difluoromethoxy)pyrazin-2-yl)amino)cyclopentyl)amino)pyridin-3-yl)-1-methylimidazolidine-2,4-dione] | > 40 µM | 0.087 µM | > 10 µM
COc1ccc(=O)n(-c2ccc(N[C@H]3CC[C@H](Nc4cnc(OC(F)F)cn4)C3)nc2)c1 [Example 95, 6′-(((1S,3S)-3-((5-(Difluoromethoxy)pyrazin-2-yl)amino)cyclopentyl)amino)-5-methoxy-2H-[1,3′-bipyridin]-2-one] | 11.1 µM | 0.114 µM | 0.115 µM
N#Cc1ccc(=O)n(-c2ccc(N[C@H]3CC[C@H](Nc4cnc(Cl)cn4)C3)nc2)c1 [Example 99, 6′-(((1S,3S)-3-((5-Chloropyrazin-2-yl)amino)cyclopentyl)amino)-2-oxo-2H-[1,3′-bipyridine]-5-carbonitrile] | 19.9 µM | 0.04 µM | > 10 µM
O=c1ccc(Cl)cn1-c1ccc(N[C@H]2CC[C@H](Nc3cnc(C4CC4)cn3)C2)nc1 [Example 109, 5-Chloro-6′-(((1S,3S)-3-((5-Cyclopropylpyrazin-2-yl)amino)cyclopentyl)amino)-2H-[1,3′-bipyridin]-2-one] | 19.9 µM | 0.041 µM | > 10 µM
N#Cc1ccc(=O)n(-c2ccc(N[C@H]3CC[C@H](Nc4cnc(C5CC5)cn4)C3)nc2)c1 [Example 110, 6′-(((1S,3S)-3-((5-Cyclopropylpyrazin-2-yl)amino)cyclopentyl)amino)-2-oxo-2H-[1,3′-bipyridine]-5-carbonitrile] | 25.3 µM | 0.048 µM | > 10 µM
CNC(=O)c1cnc(N[C@H]2CC[C@H](Nc3ccc(-n4cccc(Cl)c4=O)cn3)C2)cn1 [Example 149, 5-(((1S,3S)-3-((3-Chloro-2-oxo-2H-[1,3′-bipyridin]-6′-yl)amino)cyclopentyl)amino)-N-methylpyrazine-2-carboxamide] | > 40.1 µM | 3.96 µM | > 10 µM
CSc1cnc(N[C@H]2CC[C@H](Nc3ccc(-n4ccccc4=O)cn3)C2)cn1 [Example 162, 6′-(((1S,3S)-3-((5-(Methylthio)pyrazin-2-yl)amino)cyclopentyl)amino)-2H-[1,3′-bipyridin]-2-one] | > 40.1 µM | 0.042 µM | > 10 µM
CCSc1cnc(N[C@H]2CC[C@H](Nc3ccc(-n4ccccc4=O)cn3)C2)cn1 [Example 163, 6′-(((1S,3S)-3-((5-(Ethylthio)pyrazin-2-yl)amino)cyclopentyl)amino)-2H-[1,3′-bipyridin]-2-one] | 30.7 µM | 0.14 µM | > 10 µM
COC(=O)CSc1cnc(N[C@H]2CC[C@H](Nc3ccc(-n4ccccc4=O)cn3)C2)cn1 [Example 164, Methyl 2-((5-(((1S,3S)-3-((2-oxo-2H-[1,3′-bipyridin]-6′-yl)amino)cyclopentyl)amino)pyrazin-2-yl)thio)acetate] | > 40.1 µM | 0.451 µM | > 10 µM
Cc1cnc(N[C@H]2CC[C@H](Nc3ccc(-n4cccc(-c5c[nH]nn5)c4=O)cn3)C2)cn1 [Example 205, 6′-(((1S,3S)-3-((5-Methylpyrazin-2-yl)amino)cyclopentyl)amino)-3-(1H-1,2,3-triazol-4-yl)-2H-[1,3′-bipyridin]-2-one] | > 40.1 µM | 0.007 µM | > 10 µM
Cc1cnc(N[C@H]2CC[C@H](Nc3ccc(-n4cc(-c5cnn(C)c5)ccc4=O)cn3)C2)cn1 [Example 206, 5-(1-Methyl-1H-pyrazol-4-yl)-6′-(((1S,3S)-3-((5-methylpyrazin-2-yl)amino)cyclopentyl)amino)-2H-[1,3′-bipyridin]-2-one] | > 40.1 µM | 0.022 µM | > 10 µM
Cc1cnc(N[C@H]2CC[C@H](Nc3ccc(-n4nccc(C)c4=O)cn3)C2)cn1 [Example 227, 4-Methyl-2-(6-(((1S,3S)-3-((5-methylpyrazin-2-yl)amino)cyclopentyl)amino)pyridin-3-yl)pyridazin-3 (2H)-one] | > 40.1 µM | 0.012 µM | > 10 µM
Cc1cnc(N[C@H]2CC[C@H](Nc3ccc(-n4nc(Cl)ccc4=O)cn3)C2)cn1 [Example 233, 6-Chloro-2-(6-(((1S,3S)-3-((5-methylpyrazin-2-yl)amino)cyclopentyl)amino)pyridin-3-yl)pyridazin-3 (2H)-one] | > 40.1 µM | 0.024 µM | > 10 µM
O=c1[nH]ccnc1N[C@H]1CC[C@H](Nc2ccc(-n3ccccc3=O)cn2)C1 [Example 252, 6′-(((1S,3S)-3-((3-Oxo-3,4-dihydropyrazin-2-yl)amino)cyclopentyl)amino)-2H-[1,3′-bipyridin]-2-one] | > 40.1 µM | 2.58 µM | > 10 µM
Cc1cnc(N[C@H]2CC[C@H](Nc3ccc(-n4ccccc4=O)cn3)C2)c(=O)[nH]1 [Example 253, 6′-(((1S,3S)-3-((5-Methyl-3-oxo-3,4-dihydropyrazin-2-yl)amino)cyclopentyl)amino)-2H-[1,3′-bipyridin]-2-one] | > 40.1 µM | 0.307 µM | > 10 µM
Cc1cnc(N[C@H]2CC[C@H](Nc3ccc(N4C(=O)CCc5ccccc54)cn3)C2)cn1 [Example 274, 1-(6-(((1S,3S)-3-((5-Methylpyrazin-2-yl)amino)cyclopentyl)amino)pyridin-3-yl)-3,4-dihydroquinolin-2 (1H)-one] | 17.1 µM | 0.0081 µM | > 10 µM

From US20240217951A1, “PCSK9 INHIBITORS AND METHODS OF USE THEREOF” (AstraZeneca AB, priority 2022, published 2024)
